# Experimental data: patent US10131652B2, “Pyrimidinyloxy benzene derivatives as herbicides” (E. I. DU PONT DE NEMOURS AND COMPANY, priority 2014, dated 2018)
# Assays:
# Format in all cases: in vivo
# [1] = tested on: barnyardgrass (Echinochloa crus-galli); assay: Test B pre-/postemergence plant response
# In short: (§1)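 Greenhouse pots, loam/sand soil; compound formulated with surfactant in non-phytotoxic solvent. Preemergence soil spray and postemergence spray at 1–2 leaf stage run simultaneously. Visual injury, 0–100, about 10 days post-treatment.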
# corn (Zea mays) = assay: Test B pre-/postemergence plant response
# In short: as §1
# [2] = tested on: giant foxtail (Setaria faberii); assay: Test B pre-/postemergence plant response
# In short: as §1
# [3] = tested on: large (Lg) crabgrass (Digitaria sanguinalis); assay: Test B pre-/postemergence plant response
# In short: as §1
# [4] = tested on: morningglory (Ipomoea spp.); assay: Test B pre-/postemergence plant response
# In short: as §1
# [5] = tested on: pigweed (Amaranthus retroflexus); assay: Test B pre-/postemergence plant response
# In short: as §1
# [6] = tested on: velvetleaf (Abutilon theophrasti); assay: Test B pre-/postemergence plant response
# In short: as §1
# [7] = tested on: wheat (Triticum aestivum); assay: Test B pre-/postemergence plant response
# In short: as §1
# [8] = tested on: barnyardgrass (Echinochloa crus-galli); assay: Test C flooded paddy test plant response; conditions: Flood, 250 g ai/ha; scale of 0 to 100 where 0 is no effect and 100 is complete control; 13 to 15 days
# In short: (§2)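 Greenhouse paddy assay, 13–15 days. Treatment into 3 cm floodwater over 2-leaf plants; visual 0–100 rating against controls.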
# [9] = tested on: ducksalad (Heteranthera limosa); assay: Test C flooded paddy test plant response; conditions: Flood, 250 g ai/ha; scale of 0 to 100 where 0 is no effect and 100 is complete control; 13 to 15 days
# In short: as §2
# rice (Oryza sativa) = assay: Test C flooded paddy test plant response; conditions: Flood, 250 g ai/ha; scale of 0 to 100 where 0 is no effect and 100 is complete control; 13 to 15 days
# In short: as §2
# [10] = tested on: small-flower umbrella sedge (Cyperus difformis); assay: Test C flooded paddy test plant response; conditions: Flood, 250 g ai/ha; scale of 0 to 100 where 0 is no effect and 100 is complete control; 13 to 15 days
# In short: as §2
# [11] = 125 g ai/ha, postemergence, 0 to 100 scale, 0 no effect, 100 complete control
# [12] = Postemergence, 500 g ai/ha, 0 to 100 scale (0 no effect, 100 complete control)
# [13] = Preemergence, 125 g ai/ha, 0 to 100 scale where 0 is no effect and 100 is complete control
# [14] = Preemergence, 500 g ai/ha, 0 to 100 scale (0 no effect, 100 complete control)
# [15] = Postemergence, 1000 g ai/ha, 0 to 100 scale (0 no effect, 100 complete control)
# [16] = Preemergence, 1000 g ai/ha, 0 to 100 scale (0 no effect, 100 complete control)
structure (smiles),measurement,setting,value
Clc1cnc(Oc2ccccc2-c2cccnc2)nc1 [Compound 4],"Plant response rating, Barnyardgrass",[1]; [11],0
same,"Plant response rating, Barnyardgrass",[1]; [12],10
same,"Plant response rating, Barnyardgrass",[1]; [13],0
same,"Plant response rating, Barnyardgrass",[1]; [14],0
same,"Plant response rating, Corn",corn (Zea mays); [13],0
same,"Plant response rating, Corn",corn (Zea mays); [14],0
same,"Plant response rating, Foxtail, Giant",[2]; [11],0
same,"Plant response rating, Foxtail, Giant",[2]; [12],30
same,"Plant response rating, Foxtail, Giant",[2]; [13],10
same,"Plant response rating, Foxtail, Giant",[2]; [14],50
same,"Plant response rating, Crabgrass, Large",[3]; [11],20
same,"Plant response rating, Crabgrass, Large",[3]; [12],50
same,"Plant response rating, Crabgrass, Large",[3]; [13],10
same,"Plant response rating, Crabgrass, Large",[3]; [14],80
same,"Plant response rating, Morningglory",[4]; [11],0
same,"Plant response rating, Morningglory",[4]; [12],30
same,"Plant response rating, Morningglory",[4]; [13],0
same,"Plant response rating, Morningglory",[4]; [14],0
same,"Plant response rating, Pigweed",[5]; [11],30
same,"Plant response rating, Pigweed",[5]; [12],100
same,"Plant response rating, Pigweed",[5]; [13],30
same,"Plant response rating, Pigweed",[5]; [14],70
same,"Plant response rating, Velvetleaf",[6]; [11],30
same,"Plant response rating, Velvetleaf",[6]; [12],60
same,"Plant response rating, Velvetleaf",[6]; [13],0
same,"Plant response rating, Velvetleaf",[6]; [14],30
same,"Plant response rating, Wheat",[7]; [11],0
same,"Plant response rating, Wheat",[7]; [12],0
same,"Plant response rating, Wheat",[7]; [13],0
same,"Plant response rating, Wheat",[7]; [14],0
same,Barnyardgrass plant response rating,[8],0
same,Ducksalad plant response rating,[9],0
same,Rice plant response rating,rice (Oryza sativa),0
same,"Sedge, Umbrella plant response rating",[10],0
Cn1ccc(-c2ccccc2Oc2ncc(Cl)cn2)n1 [Compound 10],"Plant response rating, Barnyardgrass",[1]; [11],0
same,"Plant response rating, Barnyardgrass",[1]; [12],0
same,"Plant response rating, Barnyardgrass",[1]; [15],10
same,"Plant response rating, Barnyardgrass",[1]; [13],0
same,"Plant response rating, Barnyardgrass",[1]; [14],0
same,"Plant response rating, Barnyardgrass",[1]; [16],0
same,"Plant response rating, Corn",corn (Zea mays); [11],0
same,"Plant response rating, Corn",corn (Zea mays); [12],0
same,"Plant response rating, Corn",corn (Zea mays); [15],0
same,"Plant response rating, Corn",corn (Zea mays); [13],0
same,"Plant response rating, Corn",corn (Zea mays); [14],0
same,"Plant response rating, Corn",corn (Zea mays); [16],0
same,"Plant response rating, Foxtail, Giant",[2]; [11],0
same,"Plant response rating, Foxtail, Giant",[2]; [12],0
same,"Plant response rating, Foxtail, Giant",[2]; [15],10
same,"Plant response rating, Foxtail, Giant",[2]; [13],0
same,"Plant response rating, Foxtail, Giant",[2]; [14],0
same,"Plant response rating, Foxtail, Giant",[2]; [16],0
same,"Plant response rating, Crabgrass, Large",[3]; [11],0
same,"Plant response rating, Crabgrass, Large",[3]; [12],0
same,"Plant response rating, Crabgrass, Large",[3]; [15],10
same,"Plant response rating, Crabgrass, Large",[3]; [13],0
same,"Plant response rating, Crabgrass, Large",[3]; [14],0
same,"Plant response rating, Crabgrass, Large",[3]; [16],10
same,"Plant response rating, Morningglory",[4]; [11],20
same,"Plant response rating, Morningglory",[4]; [12],30
same,"Plant response rating, Morningglory",[4]; [15],10
same,"Plant response rating, Morningglory",[4]; [13],0
same,"Plant response rating, Morningglory",[4]; [14],0
same,"Plant response rating, Morningglory",[4]; [16],0
same,"Plant response rating, Pigweed",[5]; [11],0
same,"Plant response rating, Pigweed",[5]; [12],20
same,"Plant response rating, Pigweed",[5]; [15],50
same,"Plant response rating, Pigweed",[5]; [13],0
same,"Plant response rating, Pigweed",[5]; [14],30
same,"Plant response rating, Pigweed",[5]; [16],10
same,"Plant response rating, Velvetleaf",[6]; [11],0
same,"Plant response rating, Velvetleaf",[6]; [12],20
same,"Plant response rating, Velvetleaf",[6]; [15],20
same,"Plant response rating, Velvetleaf",[6]; [13],0
same,"Plant response rating, Velvetleaf",[6]; [14],0
same,"Plant response rating, Velvetleaf",[6]; [16],0
same,"Plant response rating, Wheat",[7]; [11],0
same,"Plant response rating, Wheat",[7]; [12],0
same,"Plant response rating, Wheat",[7]; [15],0
same,"Plant response rating, Wheat",[7]; [13],0
same,"Plant response rating, Wheat",[7]; [14],0
same,"Plant response rating, Wheat",[7]; [16],0
same,Barnyardgrass plant response rating,[8],0
same,Ducksalad plant response rating,[9],0
same,Rice plant response rating,rice (Oryza sativa),0
same,"Sedge, Umbrella plant response rating",[10],0
